System: HCV genotype 1a replicon cell line
Test: HCV Genotype 1a Replicon Assay
Assay type: cell-based
Settings: Hepatitis C virus, Huh7.5 cell background, NS3-specific protease activity in lysates, 48 or 72 hours, read-out: pEC50 Genotype 1a (converted)
Method: Assay 2: HCV Genotype 1a Replicon Assay
The HCV genotype 1a replicon cell line was obtained from Apath LLC (APC89; Huh7.5 cell background). This subgenomic replicon contains the N-terminus of the HCV core protein fused to the neomycin-resistance selectable marker. The EMCV IRES lies downstream and drives expression of the non-structural proteins NS3-NS5B. Compound potencies were determined using the NS3-specific protease activity in lysates as a measurement of compound inhibition of replicon levels.
Cells were grown at 37° C. in a 5% CO2 humidified incubator in DMEM (Invitrogen) with 10% FBS (HyClone), 1×NEAA (Invitrogen), 1× Pen-Strep (Invitrogen), and 850 μg/mL G418 (Invitrogen). On day 1 of the assay, cells were plated at 15,000 cells/well in black 96-well tissue culture plates (Costar) in 200 μL media lacking G418. […] Compounds were initially diluted in DMSO and then diluted another 200× in media to bring the final DMSO concentration down to 0.5%. The cells were incubated with test compounds for 48 or 72 hours. At the end of the incubation period, media and compound were removed from the plates.
To determine the NS3-specific protease activity in lysates, the cells were lysed at room temperature in 50 μL/well of 50 mM Hepes pH 7.5, 150 mM NaCl, 15% Glycerol, 0.15% Triton X-100, 10 mM DTT for 20 minutes with shaking. 50 μL of an NS3/4a protease-specific FRET substrate (Anaspec RET S1 Cat#22991) was then added to the wells at a final concentration of 15 μM. The plates were incubated at 37° C. for 20 minutes, which corresponds to a timepoint at which the protease activity is still in the linear phase. Protease activity was determined by measuring fluorescence (Excitation: 340 nm; Emission: 509 nm).
To analyze the data, the fluorescence was plotted vs. the compound concentration, and EC50 values were determined from a 4-parameter robust fit model using GraphPad Prism software.

Row | Compound | EC50 [nM]
1 | COC(=O)N[C@H](C(=O)N1CC(C)=C[C@H]1c1nc(-c2ccc(-c3cc(Cl)c(NC(=O)c4ccc(N5CCN(C(=O)C(C)(C)C)C[C@H]5C)nc4)cc3OC(F)(F)F)cc2)c[nH]1)C(C)C [Example 1, [(S)-1-((S)-2-{4-[5′-Chloro-4′-({6-[(R)-4-(2,2-dimethyl-propionyl)-2-methyl-piperazin-1-yl]-pyridine-3-carbonyl}-amino)-2′-trifluoromethoxy-biphenyl-4-yl]-1H-imidazol-2-yl}-4-methyl-2,5-dihydro-pyrrole-1-carbonyl)-2-methyl-propyl]-carbamic acid methyl ester] | < 0.1
2 | COC(=O)N[C@H](C(=O)N1CC(C)CC[C@H]1c1nc(-c2ccc(-c3cc(Cl)c(NC(=O)c4ccc(N5CCN(C(=O)C(C)(C)C)C[C@H]5C)nc4)cc3OC(F)(F)F)cc2)c[nH]1)C(C)C (stereo partly drawn) [Example 1-5] | 0.1 to 1
3 | COC(=O)N[C@H](C(=O)N1CC(C)=C[C@H]1c1nc(-c2ccc(-c3cc(Cl)c(NC(=O)c4ccc(N5CCN(C(=O)[C@H]6CC6(C)C)C[C@H]5C)nc4)cc3OC(F)(F)F)cc2)c[nH]1)C(C)C [Example 2, ((S)-1-{(S)-2-[4-(5′-Chloro-4′-{[6-((R)-4-(S)-2,2-dimethylcyclopropanecarbonyl-2-methyl-piperazin-1-yl)-pyridine-3-carbonyl]-amino}-2′-trifluoromethoxy-biphenyl-4-yl)-1H-imidazol-2-yl]-4-methyl-2,5-dihydro-pyrrole-1-carbonyl}-2-methyl-propyl)-carbamic acid methyl ester] | < 0.1
4 | COC(=O)N[C@H](C(=O)N1CC(C)=C[C@H]1c1nc(-c2ccc(-c3ccc(C(=O)Nc4ccc(N5CC(C)N(C(=O)C6CC6)C[C@H]5C)nc4)cc3OC(F)(F)F)cc2)c[nH]1)C(C)C (stereo partly drawn) [Example 2-1] | 0.1 to 1
5 | CNC(=O)N1C[C@@H](C)N(c2ccc(NC(=O)c3ccc(-c4ccc(-c5c[nH]c([C@@H]6C=C(C)CN6C(=O)[C@@H](NC(=O)OC)C(C)C)n5)cc4)c(OC(F)(F)F)c3)cn2)CC1C (stereo partly drawn) [Example 2-2] | 0.1 to 1
6 | COC(=O)N[C@H](C(=O)N1CC(C)=C[C@H]1c1nc(-c2ccc(-c3ccc(C(=O)Nc4ccc(N5CC(C)N(C(=O)C(C)(C)C)C[C@H]5C)nc4)cc3OC(F)(F)F)cc2)c[nH]1)C(C)C (stereo partly drawn) [Example 2-3] | 0.1 to 1
7 | COC(=O)N[C@H](C(=O)N1CC(C)=C[C@H]1c1nc(-c2ccc(-c3ccc(C(=O)Nc4ccc(N5CC(C)N(C(=O)CNC(C)=O)C[C@H]5C)nc4)cc3OC(F)(F)F)cc2)c[nH]1)C(C)C (stereo partly drawn) [Example 2-5] | 0.1 to 1
8 | COC(=O)N[C@H](C(=O)N1CC(C)=C[C@H]1c1nc(-c2ccc(-c3ccc(C(=O)Nc4ccc(N5CC(C)N(C(=O)C6(O)CC6(C)C)C[C@H]5C)nc4)cc3OC(F)(F)F)cc2)c[nH]1)C(C)C (stereo partly drawn) [Example 2-6] | 0.1 to 1
9 | COC(=O)N[C@H](C(=O)N1CC(C)=C[C@H]1c1nc(-c2ccc(-c3ccc(C(=O)Nc4ccc(N5CC(C)N(C(=O)C6CC6(Cl)Cl)C[C@H]5C)nc4)cc3OC(F)(F)F)cc2)c[nH]1)C(C)C (stereo partly drawn) [Example 2-7] | 0.1 to 1
10 | COC(=O)N[C@H](C(=O)N1CC(C)=C[C@H]1c1nc(-c2ccc(-c3ccc(C(=O)Nc4ccc(N5CC(C)N(C(=O)C(C)(C)NC(=O)C6CCC6)C[C@H]5C)nc4)cc3OC(F)(F)F)cc2)c[nH]1)C(C)C (stereo partly drawn) [Example 2-9] | 0.1 to 1
11 | COC(=O)N[C@H](C(=O)N1CC(C2CC2)=C[C@H]1c1nc(-c2ccc(-c3cc(Cl)c(NC(=O)c4ccc(N5CCN(C(=O)C(C)(C)C)C[C@H]5C)nc4)cc3OC(F)(F)F)cc2)c[nH]1)C(C)C [Example 3, [(S)-1-((S)-2-{4-[5′-Chloro-4′-({6-[(R)-4-(2,2-dimethyl-propionyl)-2-methyl-piperazin-1-yl]-pyridine-3-carbonyl}-amino)-2′-trifluoromethoxy-biphenyl-4-yl]-1H-imidazol-2-yl}-4-cyclopropyl-2,5-dihydro-pyrrole-1-carbonyl)-2-methyl-propyl]-carbamic acid methyl ester] | < 0.1
12 | [2H]C([2H])([2H])C1(C([2H])([2H])[2H])CC1C(=O)N1C[C@@H](C)N(c2ccc(NC(=O)c3ccc(-c4ccc5c(ccc6[nH]c([C@@H]7C[C@H](C)CN7C(=O)[C@@H](NC(=O)OC)C(C)C)nc65)c4)c(OC(F)(F)F)c3)cn2)CC1C (stereo partly drawn) [Example 3-8] | < 0.1
13 | COC(=O)N[C@H](C(=O)N1C[C@@H](C)C[C@H]1c1nc2c(ccc3cc(-c4ccc(C(=O)Nc5ccc(N6CC(C)N(C(=O)C(C)(C)C)C[C@H]6C)nc5)cc4OC(F)(F)F)ccc32)[nH]1)C(C)C (stereo partly drawn) [Example 3-9] | < 0.1
14 | COC(=O)N[C@H](C(=O)N1C[C@@H](C)C[C@H]1c1nc2c(ccc3cc(-c4ccc(C(=O)Nc5ccc(N6CC(C)N(C(=O)N(C)C)C[C@H]6C)nc5)cc4OC(F)(F)F)ccc32)[nH]1)C(C)C (stereo partly drawn) [Example 3-10] | < 0.1
15 | COC(=O)N[C@H](C(=O)N1C[C@@H](C)C[C@H]1c1nc2c(ccc3cc(-c4ccc(C(=O)Nc5ccc(N6CC(C)N(C(=O)C7CC7)C[C@H]6C)nc5)cc4OC(F)(F)F)ccc32)[nH]1)C(C)C (stereo partly drawn) [Example 3-11] | < 0.1
16 | COC(=O)N[C@H](C(=O)N1[C@@H]2CC[C@@H](C2)[C@H]1c1nc(-c2ccc(-c3cc(Cl)c(NC(=O)c4ccc(N5CCN(C(=O)C(C)(C)C)C[C@H]5C)nc4)cc3OC(F)(F)F)cc2)c[nH]1)C1CCOCC1 [Example 5-4] | < 0.1
17 | COC(=O)N[C@H](C(=O)N1[C@@H]2CC[C@@H](C2)[C@H]1c1nc(-c2ccc(-c3cc(Cl)c(NC(=O)c4ccc(N5CCN(C(=O)C(C)(C)C)C[C@H]5C)nc4)cc3OC(F)(F)F)cc2)c[nH]1)C(C)C [Example 5-5] | 0.1 to 1
18 | COC(=O)N[C@H](C(=O)N1[C@@H]2C[C@@H]2CC[C@H]1c1nc(-c2ccc(-c3cc(Cl)c(NC(=O)c4ccc(N5CCN(C(=O)[C@H]6CC6(C)C)C[C@H]5C)nc4)cc3OC(F)(F)F)cc2)c[nH]1)C(C)C [Example 5-8] | < 0.1
19 | COC(=O)N[C@H](C(=O)N1[C@@H]2C[C@@H]2CC[C@H]1c1nc(-c2ccc(-c3cc(Cl)c(NC(=O)c4ccc(N5CCN(C(=O)C(C)(C)CO)C[C@H]5C)nc4)cc3OC(F)(F)F)cc2)c[nH]1)C(C)C [Example 5-9] | < 0.1
20 | COC(=O)N[C@H](C(=O)N1C[C@H]2[C@@H]([C@H]1c1nc(-c3ccc(-c4cc(Cl)c(NC(=O)c5ccc(N6CCN(C(=O)C(C)(C)C)C[C@H]6C)nc5)cc4OC(F)(F)F)cc3)c[nH]1)C2(C)C)C(C)C [Example 5-11] | 0.1 to 1
21 | COC(=O)N[C@H](C(=O)N1C[C@H]2[C@@H]([C@H]1c1nc(-c3ccc(-c4cc(Cl)c(NC(=O)c5ccc(N6CCN(C(=O)C(C)(C)C)C[C@H]6C)nc5)cc4OC(F)(F)F)cc3)c[nH]1)C2(C)C)C1CCOCC1 [Example 5-12] | 0.1 to 1
22 | COC(=O)N[C@H](C(=O)N1C[Si](C)(C)C[C@H]1c1nc(-c2ccc(-c3cc(Cl)c(NC(=O)c4ccc(N5CCN(C(=O)C(C)(C)C)C[C@H]5C)nc4)cc3OC(F)(F)F)cc2)c[nH]1)C(C)C [Example 6, [(S)-1-((R)-5-{4-[5′-Chloro-4′-({6-[(R)-4-(2,2-dimethyl-propionyl)-2-methyl-piperazin-1-yl]-pyridine-3-carbonyl}-amino)-2′-trifluoromethoxy-biphenyl-4-yl]-1H-imidazol-2-yl}-3,3-dimethyl-[1,3]azasilolidine-1-carbonyl)-2-methyl-propyl]-carbamic acid methyl ester] | 0.1 to 1
23 | COC(=O)N[C@H](C(=O)N1C[C@@H](C)CC[C@H]1c1nc(-c2ccc(-c3cc(Cl)c(NC(=O)c4ccc(N5CCN(C(=O)C(C)(C)CO)C[C@H]5C)nc4)cc3OC(F)(F)F)cc2)c[nH]1)C(C)C [Example 11, [(S)-1-((2S,5S)-2-{4-[5′-Chloro-4′-({6-[(R)-4-(3-hydroxy-2,2-dimethyl-propionyl)-2-methyl-piperazin-1-yl]-pyridine-3-carbonyl}-amino)-2′-trifluoromethoxy-biphenyl-4-yl]-1H-imidazol-2-yl}-5-methyl-piperidine-1-carbonyl)-2-methyl-propyl]-carbamic acid methyl ester] | 0.1 to 1
24 | COC(=O)N[C@H](C(=O)N1CC(C2CC2)=C[C@H]1c1nc(-c2ccc(-c3ccc(C(=O)Nc4ccc(N5CCN(C(=O)C(C)(C)C)C[C@H]5C)nc4)cc3OC(F)(F)F)cc2)c[nH]1)C(C)C [Example 12, ((S)-1-{(S)-4-Cyclopropyl-2-[4-(4′-{6-[(R)-4-(2,2-dimethyl-propionyl)-2-methyl-piperazin-1-yl]-pyridin-3-ylcarbamoyl}-2′-trifluoromethoxy-biphenyl-4-yl)-1H-imidazol-2-yl]-2,5-dihydro-pyrrole-1-carbonyl}-2-methyl-propyl)-carbamic acid methyl ester] | 0.1 to 1

Source: patent US9365549B2, “Hepatitis C virus inhibitors” (THERAVANCE BIOPHARMA R&D IP, LLC, priority 2012, dated 2016)
